According to ChEMBL document CHEMBL1126494, “New potent angiotensin II receptor antagonists containing phenylthiophenes and phenylfurans in place of the biphenyl moiety” (Bioorg Med Chem Lett, 1993):

experiment: Compound was tested for inhibition of Angiotensin II receptor in rabbit aorta binding assay

Structure (SMILES)	IC50 [nM]
CCc1nc2c(C)cc(C)nc2n1Cc1ccc(-c2ccoc2-c2nn[nH]n2)cc1	23
CCc1nc2c(C)cc(C)nc2n1Cc1ccc(-c2cscc2-c2nn[nH]n2)cc1	2.4
CCc1nc2c(C)cc(C)nc2n1Cc1ccc(-c2ccccc2-c2nn[nH]n2)s1	1000
CCc1nc2c(C)cc(C)nc2n1Cc1ccc(-c2ccsc2-c2nn[nH]n2)cc1	2.3
